Values joined by “and” are separate entries in the source; they are usually repeats but may differ in a detail not shown here. Equal values may be shown once. Toxic doses and inconclusive results are not listed. How the source made its calls: active means survival T/C of 150% or more; inactive means T/C below 125% in these data.
Test system: BDF1 mice, P388 leukemia ip, median survival T/C
Experiment: NCI In Vivo Anticancer Drug Screen. Data for tumor model P388 Leukemia (intraperitoneal) in B6D2F1 (BDF1) mice
Conditions: endpoint: median survival time, higher = longer survival
Protocol: The antitumor activity of compounds was measured in mice bearing transplantable tumors. Survival or tumor size were measured and the results are expressed as the measurement made in the treated group (T) divided by the measurement made in the vehicle treated control group (C). The tumor model used in this assay is P388 Leukemia (intraperitoneal) in B6D2F1 (BDF1) mice

[1] = dose: 50.0 mg/kg/injection, schedule: Q01DX009 (ip), vehicle: saline with Tween-80
[2] = dose: 100.0 mg/kg/injection, schedule: Q01DX009 (ip), vehicle: saline with Tween-80
[3] = dose: 200.0 mg/kg/injection, schedule: Q01DX009 (ip), vehicle: saline with Tween-80
[4] = dose: 50.0 mg/kg/injection, schedule: Q01DX009 (ip), vehicle: Klucel (hydroxypropylcellulose) (HPC)
[5] = dose: 200.0 mg/kg/injection, schedule: Q04DX003 (ip), vehicle: Klucel (hydroxypropylcellulose) (HPC)
[6] = dose: 50.0 mg/kg/injection, schedule: Q04DX003 (ip), vehicle: Klucel (hydroxypropylcellulose) (HPC)
[7] = dose: 100.0 mg/kg/injection, schedule: Q04DX003 (ip), vehicle: Klucel (hydroxypropylcellulose) (HPC)

Measured: T/C

Cc1nc2ccccc2nc1CC(O)(c1ccccc1)c1ccccc1
inactive: [1] 97 % of control | [2] 103 % of control | [3] 100 % of control

CC(=O)Nc1ccc(NC2=NCCO2)cc1
inactive: dose: 50.0 mg/kg/injection, schedule: Q01DX001 (ip), vehicle: saline with Tween-80 100 % of control | dose: 100.0 mg/kg/injection, schedule: Q01DX001 (ip), vehicle: saline with Tween-80 95 % of control | dose: 200.0 mg/kg/injection, schedule: Q01DX001 (ip), vehicle: saline with Tween-80 90 % of control

O=C(C[n+]1cc(Br)cc2ccccc21)c1ccc(O)c(O)c1
inactive: [4] 95 % of control | dose: 176.0 mg/kg/injection, schedule: Q04DX003 (ip), vehicle: saline sonified 118 % of control | [5] 110 % of control | dose: 200.0 mg/kg/injection, schedule: Q04DX003 (ip), vehicle: saline sonified 122 % of control | dose: 264.0 mg/kg/injection, schedule: Q01DX009 (ip), vehicle: saline with Tween-80 113 % of control | dose: 400.0 mg/kg/injection, schedule: Q01DX009 (ip), vehicle: Klucel (hydroxypropylcellulose) (HPC) 115 % of control | dose: 400.0 mg/kg/injection, schedule: Q04DX003 (ip), vehicle: saline sonified 118 % of control
active: dose: 200.0 mg/kg/injection, schedule: Q01DX009 (ip), vehicle: saline 170 % of control | dose: 400.0 mg/kg/injection, schedule: Q01DX009 (ip), vehicle: saline 180 % of control

NC(N)=Nc1ccc(C(=O)Oc2c(Cl)cc([N+](=O)[O-])cc2Cl)cc1
inactive: dose: 0.18 mg/kg/injection, schedule: Q01DX009 (ip), vehicle: saline 94 % of control | dose: 0.39 mg/kg/injection, schedule: Q01DX009 (ip), vehicle: saline 92 % of control | dose: 0.78 mg/kg/injection, schedule: Q01DX009 (ip), vehicle: saline 96 % of control | dose: 1.56 mg/kg/injection, schedule: Q01DX009 (ip), vehicle: saline 102 % of control | dose: 3.12 mg/kg/injection, schedule: Q01DX009 (ip), vehicle: saline 86 % of control | dose: 50.0 mg/kg/injection, schedule: Q04DX003 (ip), vehicle: saline 95 % of control | dose: 100.0 mg/kg/injection, schedule: Q04DX003 (ip), vehicle: saline 113 % of control

O=C(O)c1c(Cl)c(Cl)c(Cl)c(C(=O)O)c1Cl
inactive: [4] 104 % of control | [6] 109 % of control | dose: 100.0 mg/kg/injection, schedule: Q01DX009 (ip), vehicle: Klucel (hydroxypropylcellulose) (HPC) 100 % of control | [7] 95 % of control | [5] 100 % of control

CCN1C(=O)c2ccccc2C1=O
inactive: [6] 104 % of control | dose: 100.0 mg/kg/injection, schedule: Q01DX001 (ip), vehicle: Klucel (hydroxypropylcellulose) (HPC) 104 % of control | [7] 118 % of control | dose: 200.0 mg/kg/injection, schedule: Q01DX001 (ip), vehicle: Klucel (hydroxypropylcellulose) (HPC) 108 % of control | [5] 100 % of control | dose: 400.0 mg/kg/injection, schedule: Q01DX001 (ip), vehicle: Klucel (hydroxypropylcellulose) (HPC) 104 % of control

NC(=O)c1cc(OCc2ccccc2)nc2nc(Cl)nc(N)c12
inactive: [1] 100 % of control | [2] 96 % of control | [3] 110 % of control

Cc1ccnc(=O)[nH]1
inactive: dose: 3.13 mg/kg/injection, schedule: Q01DX009 (ip), vehicle: saline 103 % of control | dose: 6.25 mg/kg/injection, schedule: Q01DX009 (ip), vehicle: saline 115 % of control | dose: 12.5 mg/kg/injection, schedule: Q01DX009 (ip), vehicle: saline 99 % of control | dose: 25.0 mg/kg/injection, schedule: Q01DX009 (ip), vehicle: saline 105 % of control

O=C1CN(CCl)C(=O)CN1CCl
inactive: dose: 12.5 mg/kg/injection, schedule: Q04DX003 (ip), vehicle: water 100 % of control and 107 % of control | dose: 25.0 mg/kg/injection, schedule: Q01DX009 (ip), vehicle: water 94 % of control | dose: 25.0 mg/kg/injection, schedule: Q04DX003 (ip), vehicle: water 92 % of control and 103 % of control | dose: 50.0 mg/kg/injection, schedule: Q01DX009 (ip), vehicle: water 92 % of control | dose: 50.0 mg/kg/injection, schedule: Q04DX003 (ip), vehicle: water 95 % of control and 107 % of control | dose: 100.0 mg/kg/injection, schedule: Q01DX009 (ip), vehicle: water 100 % of control | dose: 100.0 mg/kg/injection, schedule: Q04DX003 (ip), vehicle: water 96 % of control | dose: 200.0 mg/kg/injection, schedule: Q01DX009 (ip), vehicle: water 94 % of control

COc1ccc(C(SCC(N)C(=O)O)(c2ccccc2)c2ccccc2)cc1 (stereo unspecified)
inactive: dose: 1.3 mg/kg/injection, schedule: Q01DX009 (ip), vehicle: Klucel (hydroxypropylcellulose) (HPC) 117 % of control | dose: 2.0 mg/kg/injection, schedule: Q01DX009 (ip), vehicle: Klucel (hydroxypropylcellulose) (HPC) 113 % of control | [4] 105 % of control
active: dose: 4.12 mg/kg/injection, schedule: Q01DX009 (ip), vehicle: Klucel (hydroxypropylcellulose) (HPC) 155 % of control | dose: 6.25 mg/kg/injection, schedule: Q01DX009 (ip), vehicle: Klucel (hydroxypropylcellulose) (HPC) 160 % of control and 168 % of control and 175 % of control | dose: 12.5 mg/kg/injection, schedule: Q01DX009 (ip), vehicle: Klucel (hydroxypropylcellulose) (HPC) 200 % of control | dose: 25.0 mg/kg/injection, schedule: Q01DX009 (ip), vehicle: Klucel (hydroxypropylcellulose) (HPC) 250 % of control | dose: 25.0 mg/kg/injection, schedule: Q04DX003 (ip), vehicle: Klucel (hydroxypropylcellulose) (HPC) 155 % of control | dose: 33.0 mg/kg/injection, schedule: Q04DX003 (ip), vehicle: Klucel (hydroxypropylcellulose) (HPC) 154 % of control | [6] 170 % of control and 185 % of control | dose: 66.0 mg/kg/injection, schedule: Q04DX003 (ip), vehicle: Klucel (hydroxypropylcellulose) (HPC) 272 % of control | [7] 240 % of control and 205 % of control

C=C1C/C(=C/C)C(=O)O[C@@H]2CCN3CC=C(COC(=O)[C@]1(C)O)[C@H]23
inactive: dose: 25.0 mg/kg/injection, schedule: Q01DX010 (ip), vehicle: carboxymethylcellulose (CMC) 111 % of control | dose: 50.0 mg/kg/injection, schedule: Q01DX010 (ip), vehicle: carboxymethylcellulose (CMC) 111 % of control | dose: 100.0 mg/kg/injection, schedule: Q01DX010 (ip), vehicle: carboxymethylcellulose (CMC) 111 % of control

COc1cc2c(c(OC)c1OC)C(=O)/C(=C\c1ccccc1)O2
inactive: [3] 96 % of control

CC(C)N=Cc1ccccc1O.CC(C)N=Cc1ccccc1O.[Ni]
inactive: dose: 6.25 mg/kg/injection, schedule: Q04DX003 (ip), vehicle: saline sonified 105 % of control | dose: 12.5 mg/kg/injection, schedule: Q04DX003 (ip), vehicle: saline sonified 105 % of control | dose: 25.0 mg/kg/injection, schedule: Q04DX003 (ip), vehicle: saline sonified 115 % of control

Cc1cc(C(C(N)=O)c2ccccc2)ccc1N(CCCl)CCCl (stereo unspecified)
96 % of control and 205 % of control: dose: 12.37 mg/kg/injection, schedule: Q01DX009 (ip), vehicle: Klucel (hydroxypropylcellulose) (HPC)
inactive: dose: 0.22 mg/kg/injection, schedule: Q01DX009 (ip), vehicle: Klucel (hydroxypropylcellulose) (HPC) 112 % of control | dose: 0.33 mg/kg/injection, schedule: Q01DX009 (ip), vehicle: Klucel (hydroxypropylcellulose) (HPC) 108 % of control | dose: 6.0 mg/kg/injection, schedule: Q04DX003 (ip), vehicle: saline 118 % of control | dose: 18.75 mg/kg/injection, schedule: Q01DX009 (ip), vehicle: Klucel (hydroxypropylcellulose) (HPC) 103 % of control | dose: 28.12 mg/kg/injection, schedule: Q01DX009 (ip), vehicle: Klucel (hydroxypropylcellulose) (HPC) 110 % of control
active: dose: 0.77 mg/kg/injection, schedule: Q01DX009 (ip), vehicle: Klucel (hydroxypropylcellulose) (HPC) 155 % of control | dose: 2.34 mg/kg/injection, schedule: Q01DX009 (ip), vehicle: Klucel (hydroxypropylcellulose) (HPC) 154 % of control | dose: 4.68 mg/kg/injection, schedule: Q01DX009 (ip), vehicle: Klucel (hydroxypropylcellulose) (HPC) 186 % of control | dose: 13.75 mg/kg/injection, schedule: Q04DX003 (ip), vehicle: Klucel (hydroxypropylcellulose) (HPC) 178 % of control | dose: 27.5 mg/kg/injection, schedule: Q04DX003 (ip), vehicle: Klucel (hydroxypropylcellulose) (HPC) 213 % of control | dose: 35.0 mg/kg/injection, schedule: Q04DX003 (ip), vehicle: Klucel (hydroxypropylcellulose) (HPC) 218 % of control | dose: 55.0 mg/kg/injection, schedule: Q04DX003 (ip), vehicle: Klucel (hydroxypropylcellulose) (HPC) 272 % of control and 221 % of control | dose: 80.0 mg/kg/injection, schedule: Q04DX003 (ip), vehicle: Klucel (hydroxypropylcellulose) (HPC) 272 % of control
